pEC50: −log10 of the molar value. Structures can show the parent of a compound that is named as a salt.
Target: T1, human GPR119 (Homo sapiens, UniProt Q8TDV5)
T1 construct: expressed in transfected cells; host or cells: Flp-In-T-REx 293 (tetracycline-inducible)
T1 sequence (Q8TDV5 1-335): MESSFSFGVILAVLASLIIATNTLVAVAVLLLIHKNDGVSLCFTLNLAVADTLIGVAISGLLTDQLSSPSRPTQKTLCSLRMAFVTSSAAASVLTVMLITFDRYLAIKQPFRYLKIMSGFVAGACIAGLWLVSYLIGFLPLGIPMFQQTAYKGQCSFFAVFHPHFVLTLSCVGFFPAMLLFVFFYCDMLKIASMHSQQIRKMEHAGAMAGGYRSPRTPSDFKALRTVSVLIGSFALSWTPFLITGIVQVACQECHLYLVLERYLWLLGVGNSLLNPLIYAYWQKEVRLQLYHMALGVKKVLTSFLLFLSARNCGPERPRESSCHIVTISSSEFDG
Assay: Human Tet-inducible cAMP assay
Format: cell-based
Conditions: Flp-In-T-REx 293 tetracycline inducible cells expressing GPR119; cAMP by Hit Hunter cAMP kit; 1 hour at 37° C.; read-out: hGPR119 EC50
Method: The in vitro modulation of recombinant human GPR119 was determined as follows.
Human Tet-Inducible cAMP Assay
Cell lines expressing GPR119 are generated using the Flp-In-T-REx 293 tetracycline inducible gene expression system are cultured in culture medium comprising the following components: DMEM#11965, 10% FBS, 2 mM L-glutamine, 200 ug/ml Hygromycin B, and 15 ug/ml blasticidin.
For cAMP assays, cells are plated on 96 well plates (e.g., BD Falcon: REF 353948, black side, clear bottom, TC surface) at a density of about 4.5×10^4 cells per well in growth medium containing 1.0 ug/ml tetracycline (1.0 mg/ml stock). The cells are then incubated for 48 hours at 37° C.
Following the incubation, the growth medium is removed from the wells and the wells rinsed (once) with the assay buffer included in the Hit Hunter cAMP kit (100 μl/well). Following the wash, 20 μl of assay buffer is added to each well, followed by addition of 10 μl of a 3× concentration compound working solution. The solution is then mixed. The final concentration range of compound is from about 10^−5M to about 10^−11M. The reagents are then incubated at 37° C. at 5% CO2 for 1 hour.
The manufacturer's protocol may be followed for cAMP determination. The Hit Hunter cAMP kit protocol is outlined for the HIT-T15 cAMP assays described above.
Compounds of the present invention were tested in the Human Tet-inducible cAMP assay described immediately above and the results shown in Table 1 below were obtained.

Row | pEC50 | SMILES
1 | 8.40 | N#Cc1ccc(-n2cc(Cl)c(OC3CCN(c4ncc(C5CC5)cn4)CC3)cc2=O)c(F)c1 [Example 265, 4-(5-chloro-4-(1-(5-cyclopropylpyrimidin-2-yl)piperidin-4-yloxy)-2-oxopyridin-1(2H)-yl)-3-fluorobenzonitrile]
2 | 6.62 | CCCc1cnc(N2CCC(Oc3ccn(-c4cncnc4)c(=O)c3)CC2)nc1 [Example 192, 4-(1-(5-propylpyrimidin-2-yl)piperidin-4-yloxy)-1-(pyrimidin-5-yl)pyridin-2(1H)-one]
3 | 5.15 | CC(C)OC(=O)N1CCC(Oc2ccn(-c3ccc(S(C)(=O)=O)nc3)c(=O)c2)CC1 [Example 189, isopropyl 4-(1-(6-(methylsulfonyl)pyridin-3-yl)-2-oxo-1,2-dihydropyridin-4-yloxy)piperidine-1-carboxylate]
4 | 6.52 | CS(=O)(=O)c1ccc(-n2ccc(OC3CCN(C(=O)c4cnc5ccccc5n4)CC3)cc2=O)cc1 [Example 78, 1-(4-(methylsulfonyl)phenyl)-4-(1-(quinoxaline-2-carbonyl)piperidin-4-yloxy)pyridin-2(1H)-one]
5 | 5.30 | Cc1cc(OC2CCN(c3ncc(C4CC4)cn3)CC2)cc(=O)n1-c1ccc(S(C)(=O)=O)cc1 [Example 162, 4-(1-(5-cyclopropylpyrimidin-2-yl)piperidin-4-yloxy)-6-methyl-1-(4-(methylsulfonyl)phenyl)pyridin-2(1H)-one]
6 | 6.58 | CCCc1cnc(N2CCC(Oc3ccn(-c4ccc(S(C)(=O)=O)cc4C)c(=O)c3)CC2)nc1 [Example 178, 1-(2-methyl-4-(methylsulfonyl)phenyl)-4-(1-(5-propylpyrimidin-2-yl)piperidin-4-yloxy)pyridin-2(1H)-one]
7 | 6.52 | CCCOC(=O)N1CCC(Oc2ccn(-c3ccc(S(C)(=O)=O)cc3)c(=O)c2)CC1 [Example 91, propyl 4-(1-(4-(methylsulfonyl)phenyl)-2-oxo-1,2-dihydropyridin-4-yloxy)piperidine-1-carboxylate]
8 | 6.60 | CCc1cnc(N2CCC(Oc3ccn(-c4cccnc4)c(=O)c3)CC2)nc1 [Example 133, 4-(1-(5-ethylpyrimidin-2-yl)piperidin-4-yloxy)-1-(pyridin-3-yl)pyridin-2(1H)-one]
9 | 8.30 | CCCc1cnc(N2CCC(Oc3cc(=O)n(-c4ccc(S(C)(=O)=O)cc4)cc3Cl)CC2)nc1 [Example 194, 5-chloro-1-(4-(methylsulfonyl)phenyl)-4-(1-(5-propylpyrimidin-2-yl)piperidin-4-yloxy)pyridin-2(1H)-one, TFA salt]
10 | 5.36 | CS(=O)(=O)c1ccc(-n2ccc(OC3CCN(S(C)(=O)=O)CC3)cc2=O)cc1 [Example 83, 1-(4-(methylsulfonyl)phenyl)-4-(1-(methylsulfonyl)piperidin-4-yloxy)pyridin-2(1H)-one]
11 | 5.48 | CS(=O)(=O)c1ccc(-n2ccc(OC3CCN(S(=O)(=O)C4CC4)CC3)cc2=O)cc1 [Example 84, 4-(1-(cyclopropylsulfonyl)piperidin-4-yloxy)-1-(4-(methylsulfonyl)phenyl)pyridin-2(1H)-one]
12 | 8.05 | CS(=O)(=O)c1ccc(-n2ccc(OC3CCN(c4ncc(C5CCC5)cn4)CC3)cc2=O)c(F)c1 [Example 243, 4-(1-(5-cyclobutylpyrimidin-2-yl)piperidin-4-yloxy)-1-(2-fluoro-4-(methylsulfonyl)phenyl)pyridin-2(1H)-one]
13 | 6.59 | CCCc1cnc(N2CCCC(Oc3ccn(-c4ccc(S(C)(=O)=O)cc4)c(=O)c3)CC2)nc1 (centres unmarked) [Example 261, 1-(4-(methylsulfonyl)phenyl)-4-(1-(5-propylpyrimidin-2-yl)azepan-4-yloxy)pyridin-2(1H)-one]
14 | 6.58 | Cc1cnc(N2CCC(Oc3ccn(-c4ccc(S(C)(=O)=O)cc4)c(=O)c3)CC2)nc1 [Example 108, 4-(1-(5-methylpyrimidin-2-yl)piperidin-4-yloxy)-1-(4-(methylsulfonyl)phenyl)pyridin-2(1H)-one]
15 | 5.30 | CCCc1cnc(N2CCC(Oc3cc(C)n(-c4ccc(S(C)(=O)=O)cc4)c(=O)c3)CC2)nc1 [Example 165, 6-methyl-1-(4-(methylsulfonyl)phenyl)-4-(1-(5-propylpyrimidin-2-yl)piperidin-4-yloxy)pyridin-2(1H)-one]
16 | 5.47 | CC(C)OC(=O)N1CCC(Oc2ccn(-c3ccc(NC(=O)C(C)C)cc3)c(=O)c2)CC1 [Example 209, isopropyl 4-(1-(4-isobutyramidophenyl)-2-oxo-1,2-dihydropyridin-4-yloxy)piperidine-1-carboxylate]
17 | 8.10 | CCCc1cnc(N2CCC(Oc3ccn(-c4ccc(C#N)cc4F)c(=O)c3)CC2)nc1 [Example 177, 3-fluoro-4-(2-oxo-4-(1-(5-propylpyrimidin-2-yl)piperidin-4-yloxy)pyridin-1(2H)-yl)benzonitrile, TFA salt]
18 | 8.22 | CCCc1cnc(N2CCC(Oc3cc(=O)n(-c4ccc(S(C)(=O)=O)c(F)c4)cc3Cl)CC2)nc1 [Example 224, 5-chloro-1-(3-fluoro-4-(methylsulfonyl)phenyl)-4-(1-(5-propylpyrimidin-2-yl)piperidin-4-yloxy)pyridin-2(1H)-one, TFA salt]
19 | 8.05 | CCCc1cnc(N2CCC(Oc3ccn(-c4ccc(NC(=O)C(C)(C)C)c(F)c4)c(=O)c3)CC2)nc1 [Example 239, N-(2-fluoro-4-(2-oxo-4-(1-(5-propylpyrimidin-2-yl)piperidin-4-yloxy)pyridin-1(2H)-yl)phenyl)pivalamide]
20 | 8.10 | CCCc1cnc(N2CCC(Oc3ccn(-c4ccc(S(C)(=O)=O)c(F)c4)c(=O)c3)CC2)nc1 [Example 175, 1-(3-fluoro-4-(methylsulfonyl)phenyl)-4-(1-(5-propylpyrimidin-2-yl)piperidin-4-yloxy)pyridin-2(1H)-one]
21 | 6.53 | CCOc1ccc(OC(=O)N2CCC(Oc3ccn(-c4ccc(S(C)(=O)=O)cc4)c(=O)c3)CC2)cc1 [Example 125, 4-ethoxyphenyl 4-(1-(4-(methylsulfonyl)phenyl)-2-oxo-1,2-dihydropyridin-4-yloxy)piperidine-1-carboxylate]
22 | 5.45 | CS(=O)(=O)c1ccc(-n2ccc(OC3CCN(S(=O)(=O)c4ccccn4)CC3)cc2=O)cc1 [Example 86, 1-(4-(methylsulfonyl)phenyl)-4-(1-(pyridin-2-ylsulfonyl)piperidin-4-yloxy)pyridin-2(1H)-one]
23 | 5.40 | CS(=O)(=O)c1ccc(-n2ccc(OC3CCN(S(=O)(=O)CC(F)(F)F)CC3)cc2=O)cc1 [Example 82, 1-(4-(methylsulfonyl)phenyl)-4-(1-(2,2,2-trifluoroethylsulfonyl)piperidin-4-yloxy)pyridin-2(1H)-one]
24 | 5.15 | Cc1nc(S(C)(=O)=O)ccc1-n1ccc(OC2CCN(C(=O)OC(C)C)CC2)cc1=O [Example 207, isopropyl 4-(1-(2-methyl-6-(methylsulfonyl)pyridin-3-yl)-2-oxo-1,2-dihydropyridin-4-yloxy)piperidine-1-carboxylate, TFA salt]
25 | 6.50 | CS(=O)(=O)c1ccc(-n2ccc(OC3CCN(c4nc5ccccc5o4)CC3)cc2=O)cc1 [Example 51, 4-(1-(benzo[d]oxazol-2-yl)piperidin-4-yloxy)-1-(4-(methylsulfonyl)phenyl)pyridin-2(1H)-one]

Row | SMILES | pEC50
26 | CCCc1cnc(N2CCC(Oc3cc(=O)n(-c4ccc(C#N)c(F)c4)cc3Cl)CC2)nc1 [Example 227, 4-(5-chloro-2-oxo-4-(1-(5-propylpyrimidin-2-yl)piperidin-4-yloxy)pyridin-1(2H)-yl)-2-fluorobenzonitrile] | 9.00
27 | N#Cc1ccc(-n2cc(Cl)c(OC3CCN(c4ncc(CCC(F)(F)F)cn4)CC3)cc2=O)cc1F [Example 263, 4-(5-chloro-2-oxo-4-(1-(5-(3,3,3-trifluoropropyl)pyrimidin-2-yl)piperidin-4-yloxy)pyridin-1(2H)-yl)-2-fluorobenzonitrile] | 8.40
28 | N#Cc1ccc(-n2cc(Cl)c(OC3CCN(c4ncc(C5CC5)cn4)CC3)cc2=O)cc1F [Example 229, 4-(5-chloro-4-(1-(5-cyclopropylpyrimidin-2-yl)piperidin-4-yloxy)-2-oxopyridin-1(2H)-yl)-2-fluorobenzonitrile] | 8.40
29 | CC(C)OC(=O)N1[C@@H]2CC[C@@H]1CC(Oc1ccn(-c3ccc(S(C)(=O)=O)cc3)c(=O)c1)C2 (stereo partly drawn) [Example 27, (3-endo)-isopropyl 3-(1-(4-(methylsulfonyl)phenyl)-2-oxo-1,2-dihydropyridin-4-yloxy)-8-azabicyclo[3.2.1]octane-8-carboxylate] | 5.46

From US8003796B2, “Pyridone GPR119 G protein-coupled receptor agonists” (Bristol-Myers Squibb Company, priority 2007, dated 2011)
